Experiment [1] deals with T1, 5-HT3AB receptor, 5-HT3B subunit Y143A (Homo sapiens, UniProt O95264+P46098, Y136A).
T1 sequence (P46098 24-478): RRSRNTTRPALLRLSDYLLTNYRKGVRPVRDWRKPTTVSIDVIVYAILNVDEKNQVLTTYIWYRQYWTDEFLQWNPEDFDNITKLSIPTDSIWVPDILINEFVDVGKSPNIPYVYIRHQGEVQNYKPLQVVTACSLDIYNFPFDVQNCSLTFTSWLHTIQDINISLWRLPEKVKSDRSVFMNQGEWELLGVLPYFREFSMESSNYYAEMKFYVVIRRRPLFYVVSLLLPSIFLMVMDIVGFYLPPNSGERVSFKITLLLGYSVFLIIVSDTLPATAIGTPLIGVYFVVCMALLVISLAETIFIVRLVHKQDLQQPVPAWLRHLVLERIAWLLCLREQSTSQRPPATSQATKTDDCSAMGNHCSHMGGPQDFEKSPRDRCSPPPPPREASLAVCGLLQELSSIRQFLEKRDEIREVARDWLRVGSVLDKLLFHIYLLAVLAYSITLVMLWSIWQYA
T1 sequence (O95264 22-441 Y136A): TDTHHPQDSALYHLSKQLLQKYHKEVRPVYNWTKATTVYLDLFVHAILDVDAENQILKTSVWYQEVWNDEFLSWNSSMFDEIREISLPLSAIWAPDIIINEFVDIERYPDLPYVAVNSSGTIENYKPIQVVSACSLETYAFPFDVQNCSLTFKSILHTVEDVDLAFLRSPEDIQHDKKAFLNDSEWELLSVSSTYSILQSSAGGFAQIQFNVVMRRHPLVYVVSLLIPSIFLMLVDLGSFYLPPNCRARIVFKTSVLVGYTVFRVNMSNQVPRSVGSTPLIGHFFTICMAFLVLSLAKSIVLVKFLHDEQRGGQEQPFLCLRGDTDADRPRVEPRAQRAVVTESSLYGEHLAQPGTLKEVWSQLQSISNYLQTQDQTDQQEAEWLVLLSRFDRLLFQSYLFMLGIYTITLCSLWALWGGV
Kind of experiment: FlexStation membrane potential dye functional assay, HEK293 cells. Particulars: 5-HT concentration-response, 5-HT3AB with 5-HT3B Y143A.
Method: (§1) For FlexStation assays, transfected cells were plated on 96-well plates and incubated 1–2 days before assay.
(§2) Fluorometric studies were undertaken using a FlexStation® (Molecular Devices, Sunnyvale, CA, USA) as previously described.[11]
(§3) Fluorescence was measured every 2 s for 200 s. […] Concentration–response and inhibition curves were obtained for each mutant, and the fluorescence values were normalized to the maximal response.

In experiment [2] the target is T2, 5-HT3AB receptor, 5-HT3B subunit F130A (Homo sapiens, UniProt O95264+P46098, F123A).
T2 sequence (P46098 24-478): T1 sequence (P46098 24-478)
T2 sequence (O95264 22-441 F123A): T1 sequence (O95264 22-441 Y136A) with F102A, A115Y
Kind of experiment: radioligand saturation binding, transfected HEK293 membranes.
Method: (§4) Human embryonic kidney (HEK) 293 cells were cultured on 90 mm tissue culture plates at 37 °C and 7% CO2 in a humidified atmosphere. They were grown in DMEM:F12 (Dulbecco’s Modified Eagle’s Medium/Nutrient Mix F12 (1:1)) with GlutaMAX I™ containing 10% fetal calf serum and passaged when confluent. For radioligand binding studies, cells in 90 mm dishes were transfected at 60–70% confluency using polyethyleneimine and incubated for 3–4 days before use. For FlexStation assays, transfected cells were plated on 96-well plates and incubated 1–2 days before assay. […]
(§5) Eight-point binding assays were performed to produce saturation binding curves. […] Radioactive counts were measured using a Beckman LS6000SC liquid scintillation counter (Fullerton, California, USA).
(§6) Data were analyzed by iterative curve fitting using GraphPad Prism v5 (San Diego, CA) according to the following equation: B=Bmax[L]^n/kdn+[L]^n where B is the amount of bound radioligand, Bmax is the maximum specific binding at equilibrium, [L] is the concentration of radioligand, Kd is the equilibrium dissociation constant of the radioligand, and n is the Hill coefficient.

In experiment [3] the target is T3, 5-HT3AB receptor, 5-HT3B subunit I183A (Homo sapiens, UniProt O95264+P46098, I176A).
T3 sequence (P46098 24-478): T1 sequence (P46098 24-478)
T3 sequence (O95264 22-441 I176A): T1 sequence (O95264 22-441 Y136A) with A115Y, I155A
Nature of the experiment: cell-based.
Method: as §1, §2, §3

For experiment [4], the target named is T4, 5-HT3AB receptor, 5-HT3B subunit H73A (Homo sapiens, UniProt O95264+P46098, H66A).
T4 sequence (P46098 24-478): T1 sequence (P46098 24-478)
T4 sequence (O95264 22-441 H66A): T1 sequence (O95264 22-441 Y136A) with H45A, A115Y
Nature of the experiment: radioligand saturation binding, transfected HEK293 membranes. Particulars: [3H]-palonosetron saturation, 5-HT3AB with 5-HT3B H73A, 4 °C, 24 h.
Method: as §4, §5, §6

The next experiment has as its target T5, 5-HT3A receptor S163T (Homo sapiens, UniProt P46098, S158T).
T5 sequence (P46098 24-478 S158T): T1 sequence (P46098 24-478) with S135T
Described as above. Particulars: [3H]-palonosetron saturation, 5-HT3A S163T, 4 °C, 24 h.

Each structure is given as a SMILES string. Residue numbers refer to the chain shown, from its start.

Method for 5-HT3A receptor S163T: as §4, §5, §6

Regarding `NCCc1c[nH]c2ccc(O)cc12` [5-HT, serotonin], in experiment [1], the “Hill Coefficient” value stood at 1.3 ± 0.2.
For the compound `O=C1c2cccc3c2[C@H](CCC3)CN1[C@@H]1CN2CCC1CC2` [Palonosetron], the Kd in experiment [2] ([3H]-palonosetron saturation, 5-HT3AB with 5-HT3B F130A, 4 °C, 24 h) came out at 480 ± 30 pM; in experiment [4] it was 140 ± 20 pM; at 5-HT3A receptor S163T, 220 ± 50 pM. The “increase in Kd compared to wild type” value in experiment [2] ([3H]palonosetron, F130A (5-HT3B) containing heteromers vs WT 5-HT3AB) is listed as “twofold”. Moreover, the IC50 in experiment [3] is 340 ± 80 pM.

As usually defined, the Kd is the constant that tells how readily two partners part at equilibrium. High values mean a looser complex, low ones a tighter complex. For orientation: IC50 means the concentration that gives 50% inhibition.

These data come from paper PMC3898987 (Bioorganic & Medicinal Chemistry, 2013).
